# Tests used:
# [1] = in vivo; cited from earlier work
# physchem = settings: water, thermodynamic from solid
# Description: Analyses were performed using the Perkin Elmer Lambda 5 UV/V is Spectrophotometer.
# Two sets of standards were prepared by serial dilution of:
# 1. 10% poloxamer P407/1% Propofol solution in water.
# 2. 1% Propofol solution in ethanol (EtOH).
# Dilutions were performed with water and EtOH respectively. The standards were further diluted one hundred fold prior to measurement of their UV absorption spectra recorded.
smiles,measurement,setting,value
"CC(C)c1cccc(C(C)C)c1O [Propofol, 2,6-bis(1-methylethyl)phenol; 2,6-diisopropylphenol]",dose required for long term infusion for anaesthesia,[1],4-12 mg/kg per hour
same,time of maximum effect after dosing,[1],within about one minute
same,solubility thermodynamic,physchem,~1000 µM
